According to PubChem BioAssay AID2060901 (Molecular Pharmacology Branch, DTP, NCI, 2025):

System: 422866-222-R5-J1-PDC complex spheroids viability
Assay: Anticancer human tumor 422866-222-R5-J1-PDC patient-derived pancreatic adenocarcinoma cell line growth inhibition [RAS]
Details: for IC50: curve of first compound; for viability, T/C: stronger effect = lower value
In short: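 Tumour cells grown as complex spheroids with HUVEC endothelial cells and mesenchymal stem cells, treated with RAS pathway inhibitor combinations. Each agent spans half-log steps from near clinical Cmax, or 10 microM where Cmax is unknown.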
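Also: spheroids exposed to compounds for 7 days.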
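For viability, T/C in this document: 100% = DMSO vehicle control viability.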

IC50 (second compound 0.00316 µM): < 31.6 nM
IC50 (second compound 0.01 µM): < 31.6 nM
IC50 (second compound 0.0316 µM): < 31.6 nM
IC50 (second compound 0.1 µM): < 31.6 nM
IC50 (second compound 0.316 µM): < 31.6 nM
IC50 (second compound 1 µM): < 31.6 nM
Compound: CC(=O)OC12COC1CC(O)C1(C)C(=O)C(O)C3=C(C)C(OC(=O)C(O)C(NC(=O)OC(C)(C)C)c4ccccc4)CC(O)(C(OC(=O)c4ccccc4)C21)C3(C)C (configuration not stated) + C=CC(=O)N1CCN(c2nc(OCC3CCCN3C)nc3c(F)c(-c4nc(N)cc(C)c4C(F)(F)F)c(Cl)cc23)C(C)C1
viability, T/C (second compound 0.00316 µM, first compound 0.0316 µM): 19.5%
viability, T/C (second compound 0.00316 µM, first compound 0.1 µM): 21.1%
viability, T/C (second compound 0.00316 µM, first compound 0.316 µM): 26.7%
viability, T/C (second compound 0.00316 µM, first compound 1 µM): 22%
viability, T/C (second compound 0.00316 µM, first compound 3.16 µM): 19.1%
viability, T/C (second compound 0.00316 µM, first compound 10 µM): 26%
viability, T/C (second compound 0.01 µM, first compound 0.0316 µM): 21.5%
viability, T/C (second compound 0.01 µM, first compound 0.1 µM): 20.8%
viability, T/C (second compound 0.01 µM, first compound 0.316 µM): 20.4%
viability, T/C (second compound 0.01 µM, first compound 1 µM): 17.6%
viability, T/C (second compound 0.01 µM, first compound 3.16 µM): 20.4%
viability, T/C (second compound 0.01 µM, first compound 10 µM): 19.6%
viability, T/C (second compound 0.0316 µM, first compound 0.0316 µM): 17.9%
viability, T/C (second compound 0.0316 µM, first compound 0.1 µM): 20.8%
viability, T/C (second compound 0.0316 µM, first compound 0.316 µM): 19.3%
viability, T/C (second compound 0.0316 µM, first compound 1 µM): 17%
viability, T/C (second compound 0.0316 µM, first compound 3.16 µM): 21.2%
viability, T/C (second compound 0.0316 µM, first compound 10 µM): 20.9%
viability, T/C (second compound 0.1 µM, first compound 0.0316 µM): 17.3%
viability, T/C (second compound 0.1 µM, first compound 0.1 µM): 21%
viability, T/C (second compound 0.1 µM, first compound 0.316 µM): 18.1%
viability, T/C (second compound 0.1 µM, first compound 1 µM): 19.2%
viability, T/C (second compound 0.1 µM, first compound 3.16 µM): 22.5%
viability, T/C (second compound 0.1 µM, first compound 10 µM): 22.5%
viability, T/C (second compound 0.316 µM, first compound 0.0316 µM): 15.3%
viability, T/C (second compound 0.316 µM, first compound 0.1 µM): 17.8%
viability, T/C (second compound 0.316 µM, first compound 0.316 µM): 19.5%
viability, T/C (second compound 0.316 µM, first compound 1 µM): 17.6%
viability, T/C (second compound 0.316 µM, first compound 3.16 µM): 18.4%
viability, T/C (second compound 0.316 µM, first compound 10 µM): 23.3%
viability, T/C (second compound 1 µM, first compound 0.0316 µM): 16.6%
viability, T/C (second compound 1 µM, first compound 0.1 µM): 17.7%
viability, T/C (second compound 1 µM, first compound 0.316 µM): 22.7%
viability, T/C (second compound 1 µM, first compound 1 µM): 20%
viability, T/C (second compound 1 µM, first compound 3.16 µM): 22.3%
viability, T/C (second compound 1 µM, first compound 10 µM): 22.6%
